Measured values: BindingDB's records for doi:10.1021/jm070728r (University of Bari, 2007)

What was measured:
[1] = biological target: T1, Amine oxidase [flavin-containing] A (Rattus norvegicus, UniProt P21396); assay: MAO Inhibition Assay; details: pH 7.4; 37 °C
T1 sequence (P21396 whole entry): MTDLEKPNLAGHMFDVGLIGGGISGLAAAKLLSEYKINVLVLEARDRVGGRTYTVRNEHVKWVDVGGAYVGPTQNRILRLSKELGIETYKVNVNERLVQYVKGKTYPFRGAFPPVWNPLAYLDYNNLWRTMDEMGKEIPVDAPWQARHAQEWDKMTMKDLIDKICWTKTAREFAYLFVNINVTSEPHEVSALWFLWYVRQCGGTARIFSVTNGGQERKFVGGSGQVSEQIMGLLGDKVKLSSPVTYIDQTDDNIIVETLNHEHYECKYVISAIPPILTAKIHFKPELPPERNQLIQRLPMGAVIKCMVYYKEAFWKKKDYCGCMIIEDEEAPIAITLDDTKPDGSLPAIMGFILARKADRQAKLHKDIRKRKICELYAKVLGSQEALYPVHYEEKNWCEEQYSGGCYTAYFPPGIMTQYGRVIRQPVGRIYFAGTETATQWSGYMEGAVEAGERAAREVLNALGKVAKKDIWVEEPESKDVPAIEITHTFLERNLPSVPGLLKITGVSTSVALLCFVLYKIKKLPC
Experimental: (§1) A continuous spectrophotometric assay that monitors the rate of oxidation of the nonselective MAO substrate kynuramine into 4-hydroxyquinoline was used. clorgyline or selegiline was preincubated with the suspension for 5 min to measure MAO-B or MAO-A activity, respectively. […] IC50 values were determined and calculated from a hyperbolic equation. Each assay was performed in triplicate on four to six separate homogenates.

[2] = biological target: T2, Amine oxidase [flavin-containing] B (Rattus norvegicus, UniProt P19643); assay: MAO Inhibition Assay
T2 sequence (P19643 whole entry): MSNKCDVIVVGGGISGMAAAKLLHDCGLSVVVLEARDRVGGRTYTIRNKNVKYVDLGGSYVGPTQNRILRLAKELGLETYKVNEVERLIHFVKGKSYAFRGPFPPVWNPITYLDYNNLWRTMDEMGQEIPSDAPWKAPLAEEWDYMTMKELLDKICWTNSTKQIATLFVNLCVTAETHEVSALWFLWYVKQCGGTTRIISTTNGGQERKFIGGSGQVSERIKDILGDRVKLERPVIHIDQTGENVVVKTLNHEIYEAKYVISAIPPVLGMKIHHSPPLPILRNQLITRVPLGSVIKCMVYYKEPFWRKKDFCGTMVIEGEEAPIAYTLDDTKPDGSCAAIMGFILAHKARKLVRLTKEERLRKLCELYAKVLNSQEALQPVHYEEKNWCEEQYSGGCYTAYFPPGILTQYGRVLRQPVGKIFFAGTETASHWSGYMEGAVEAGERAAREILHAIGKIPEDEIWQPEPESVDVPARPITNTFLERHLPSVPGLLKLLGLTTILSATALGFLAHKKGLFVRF
Experimental: as §1

| IC50 [1] [µM] | IC50 [2] [µM] | SMILES |
| --- | --- | --- |
| > 100 | – | c1ccc(-c2cc3c(nn2)-c2ccccc2C3)cc1 |
| 16.7 | 13 | c1ccc(-c2nc3cc4ccccc4c-3c[nH]2)cc1 [2-phenyl-9H-indeno[2,1-d]pyrimidine] |
